{
  "source": "paper PMC6332508",
  "about": "“A Promising PET Tracer for Imaging of α7 Nicotinic Acetylcholine Receptors in the Brain: Design, Synthesis, and in Vivo Evaluation of a Dibenzothiophene-Based Radioligand” (Molecules, 2015)",
  "test_system": "α7 nAChR",
  "test": "Dynamic PET studies in piglets with kinetic modelling (2TCM)",
  "type": "in vivo",
  "conditions": "for BPND / Rate Constant K1 / Rate Constant k2 / Rate Constant k3 / Rate Constant k4 / VND: piglet brain, 240 min scan data",
  "protocol": "One-tissue and two-tissue compartment models (1TCM and 2TCM) were evaluated for mathematical description of [^18F]10a time-activity curves (TACs) in pig brain regions (Figure 3) using metabolite-corrected arterial plasma input functions. The 2TCM was identified as the more appropriate model based on its smaller Akaike information criterion (AIC) value. The four rate constants K1, k2, k3, and k4 were fitted and the non-displaceable volume of distribution (VND = K1/k2) and the binding potential (BPND = k3/k4) as defined by Innis et al. were calculated for each region of interest (Table 3 and Table 4).\nSix female animals were used in this study with anesthesia and surgery performed as described previously. In brief, the animals received initially a premedication with midazolam (1 mg∙kg^−1 i.m.) followed by induction of anesthesia with 3% isoflurane in 70% N2O/30% O2. All incision sites were infiltrated with 1% lidocaine, and the anesthesia was maintained with 1.5% isoflurane throughout the surgical procedure. A central venous catheter was introduced through the left external jugular vein and used for the administration of the radiotracer and drugs, and for volume substitution with heparinized (50 IE∙mL^−1) lactated Ringer’s solution (2 mL∙kg^−1∙h^−1). An endotracheal tube was inserted by tracheotomy for artificial ventilation (Servo Ventilator 900C, Siemens-Elema, Solna, Sweden) after immobilization with pancuronium bromide (0.2 mg∙kg^−1∙h^−1). The artificial ventilation was adjusted to obtain normoxia and normocapnia (Radiometer ABL 500, Copenhagen, Denmark). Polyurethane catheters (i.d., 0.5 mm) were advanced through the left and the right femoral arteries into the abdominal aorta to withdraw arterial blood samples for regular monitoring of blood gases and for radiotracer input function measurements and metabolite analyses. The body temperature was monitored by a rectal temperature probe and maintained at ~38 °C by a heating pad. After the surgical procedure has been completed, anesthesia was maintained with 0.5% isoflurane in 70% N2O/30% O2, and the animals were allowed to stabilize for 1 h before imaging procedure.\nPET imaging was performed according to the protocol described recently. In brief, a clinical tomograph (ECAT Exact HR+; Siemens Healthcare GmbH, Erlangen, Germany) was used with animals lying prone with the head placed in a custom-made head holder. For attenuation and scatter correction, transmission scans were acquired using three rotating ^68Ge rod sources. The radiotracer was injected as an intravenous (i.v.) bolus (10 mL saline with 340–494 MBq [^18F]10a) by a syringe pump within 2 min followed by flushing with 10 mL heparinized saline (50 IE∙mL^−1). PET scanning started at the time of injection (0 min) and dynamic emission data were acquired for a total of 240 min. Three animals were investigated under baseline conditions, and another three under blocking conditions with administration of 3 mg∙kg^−1 i.v. of the α7 nAChR partial agonist NS6740 at 3 min before radiotracer injection followed by a continuous infusion throughout the scan (1 mg∙kg^−1∙h^−1).\nArterial blood was sampled using a peristaltic pump during the first 20 min of the scan followed by manual sampling at 25, 30, 40, 50, 60, 90, 120, 150, 180, 210, and 240 min after injection. Plasma was obtained by centrifugation (13,000 rpm, 2 min at 21 °C) and total radioactivity concentration was measured using a gamma-counter (1470 Wizard; PerkinElmer, Shelton, CT, USA) cross-calibrated to the PET scanner. In addition, arterial whole blood was sampled manually at 4, 16, 30, 60, and 120 min p.i. and plasma obtained for metabolite analyses to determine the fraction of non-metabolized [^18F]10a.\nThe plasma input function was corrected for the presence of radioactive metabolites by determination of the parent fraction as described previously. […]",
  "key": {"[1]": {"conditions": "Cerebellum, blocking (NS6740), n = 3"}, "[2]": {"conditions": "Colliculi, blocking (NS6740), n = 3"}, "[3]": {"conditions": "Frontal Cortex, baseline, n = 3"}, "[4]": {"conditions": "Frontal Cortex, blocking (NS6740), n = 3"}, "[5]": {"conditions": "Hippocampus, blocking (NS6740), n = 3"}, "[6]": {"conditions": "Midbrain, blocking (NS6740), n = 3"}, "[7]": {"conditions": "Occipital Cortex, baseline, n = 3"}},
  "note": "Several values for one entry are separate records, joined by “and”; a condition that tells them apart may be missing. Equal values may be shown once.",
  "data": [
    {"compound": "O=S1(=O)c2ccc([18F])cc2-c2ccc(N3CCN4CCC3CC4)cc21", "note": "[[^18F]10a]", "values": [
      {"measurement": "increase of VND under blocking conditions", "setting": "NS6740 vs baseline", "result": "up to 4 fold"},
      {"measurement": "time of peak concentrations of radioactivity in the brain", "setting": "baseline, i.v., n = 3", "result": "8–10 min p.i."},
      {"measurement": "SUVmax", "setting": "baseline, other brain regions", "result": "1.9–2.1"},
      {"measurement": "SUVmax", "setting": "baseline, thalamus, colliculi, and midbrain", "result": "> 2.2"},
      {"measurement": "BPND", "setting": "Cerebellum, baseline, n = 3", "result": "2.5 and 2.53 ± 0.57"},
      {"measurement": "Rate Constant K1", "setting": "Cerebellum, baseline, n = 3", "result": "0.421 ± 0.048", "unit": "mL·cm^−3·min^−1"},
      {"measurement": "Rate Constant k2", "setting": "Cerebellum, baseline, n = 3", "result": "0.131 ± 0.052", "unit": "min⁻¹"},
      {"measurement": "Rate Constant k3", "setting": "Cerebellum, baseline, n = 3", "result": "0.067 ± 0.051", "unit": "min⁻¹"},
      {"measurement": "Rate Constant k4", "setting": "Cerebellum, baseline, n = 3", "result": "0.026 ± 0.020", "unit": "min⁻¹"},
      {"measurement": "VND", "setting": "Cerebellum, baseline, n = 3", "result": "3.62 ± 1.47"},
      {"measurement": "BPND", "setting": "[1]", "result": "0.71 ± 1.10"},
      {"measurement": "Rate Constant K1", "setting": "[1]", "result": "0.711 ± 0.148", "unit": "mL·cm^−3·min^−1"},
      {"measurement": "Rate Constant k2", "setting": "[1]", "result": "0.076 ± 0.014", "unit": "min⁻¹"},
      {"measurement": "Rate Constant k3", "setting": "[1]", "result": "0.016 ± 0.019", "unit": "min⁻¹"},
      {"measurement": "Rate Constant k4", "setting": "[1]", "result": "0.011 ± 0.016", "unit": "min⁻¹"},
      {"measurement": "VND", "setting": "[1]", "result": "9.75 ± 3.57"},
      {"measurement": "BPND", "setting": "Colliculi, baseline, n = 3", "result": "2.68 ± 1.42"},
      {"measurement": "Rate Constant K1", "setting": "Colliculi, baseline, n = 3", "result": "0.450 ± 0.072", "unit": "mL·cm^−3·min^−1"},
      {"measurement": "Rate Constant k2", "setting": "Colliculi, baseline, n = 3", "result": "0.134 ± 0.074", "unit": "min⁻¹"},
      {"measurement": "Rate Constant k3", "setting": "Colliculi, baseline, n = 3", "result": "0.070 ± 0.042", "unit": "min⁻¹"},
      {"measurement": "Rate Constant k4", "setting": "Colliculi, baseline, n = 3", "result": "0.027 ± 0.018", "unit": "min⁻¹"},
      {"measurement": "VND", "setting": "Colliculi, baseline, n = 3", "result": "4.19 ± 2.37"},
      {"measurement": "BPND", "setting": "[2]", "result": "0.73 ± 0.74"},
      {"measurement": "Rate Constant K1", "setting": "[2]", "result": "0.735 ± 0.182", "unit": "mL·cm^−3·min^−1"},
      {"measurement": "Rate Constant k2", "setting": "[2]", "result": "0.066 ± 0.007", "unit": "min⁻¹"},
      {"measurement": "Rate Constant k3", "setting": "[2]", "result": "0.011 ± 0.013", "unit": "min⁻¹"},
      {"measurement": "Rate Constant k4", "setting": "[2]", "result": "0.007 ± 0.015", "unit": "min⁻¹"},
      {"measurement": "VND", "setting": "[2]", "result": "11.41 ± 3.90"},
      {"measurement": "BPND", "setting": "[3]", "result": "4.22 ± 2.93"},
      {"measurement": "Rate Constant K1", "setting": "[3]", "result": "0.387 ± 0.059", "unit": "mL·cm^−3·min^−1"},
      {"measurement": "Rate Constant k2", "setting": "[3]", "result": "0.182 ± 0.153", "unit": "min⁻¹"},
      {"measurement": "Rate Constant k3", "setting": "[3]", "result": "0.142 ± 0.165", "unit": "min⁻¹"},
      {"measurement": "Rate Constant k4", "setting": "[3]", "result": "0.027 ± 0.015", "unit": "min⁻¹"},
      {"measurement": "VND", "setting": "[3]", "result": "3.32 ± 2.06"},
      {"measurement": "BPND", "setting": "[4]", "result": "0.86 ± 0.92"},
      {"measurement": "Rate Constant K1", "setting": "[4]", "result": "0.647 ± 0.117", "unit": "mL·cm^−3·min^−1"},
      {"measurement": "Rate Constant k2", "setting": "[4]", "result": "0.055 ± 0.011", "unit": "min⁻¹"},
      {"measurement": "Rate Constant k3", "setting": "[4]", "result": "0.014 ± 0.019", "unit": "min⁻¹"},
      {"measurement": "Rate Constant k4", "setting": "[4]", "result": "0.010 ± 0.020", "unit": "min⁻¹"},
      {"measurement": "VND", "setting": "[4]", "result": "12.34 ± 4.27"},
      {"measurement": "BPND", "setting": "Hippocampus, baseline, n = 3", "result": "5.5 and 5.50 ± 1.01"},
      {"measurement": "Rate Constant K1", "setting": "Hippocampus, baseline, n = 3", "result": "0.400 ± 0.023", "unit": "mL·cm^−3·min^−1"},
      {"measurement": "Rate Constant k2", "setting": "Hippocampus, baseline, n = 3", "result": "0.188 ± 0.083", "unit": "min⁻¹"},
      {"measurement": "Rate Constant k3", "setting": "Hippocampus, baseline, n = 3", "result": "0.145 ± 0.101", "unit": "min⁻¹"},
      {"measurement": "Rate Constant k4", "setting": "Hippocampus, baseline, n = 3", "result": "0.025 ± 0.013", "unit": "min⁻¹"},
      {"measurement": "VND", "setting": "Hippocampus, baseline, n = 3", "result": "2.43 ± 0.96"},
      {"measurement": "BPND", "setting": "[5]", "result": "0.84 ± 1.70"},
      {"measurement": "Rate Constant K1", "setting": "[5]", "result": "0.603 ± 0.118", "unit": "mL·cm^−3·min^−1"},
      {"measurement": "Rate Constant k2", "setting": "[5]", "result": "0.063 ± 0.023 * min^−1"},
      {"measurement": "Rate Constant k3", "setting": "[5]", "result": "0.024 ± 0.030", "unit": "min⁻¹"},
      {"measurement": "Rate Constant k4", "setting": "[5]", "result": "0.011 ± 0.015", "unit": "min⁻¹"},
      {"measurement": "VND", "setting": "[5]", "result": "10.81 ± 5.02"},
      {"measurement": "BPND", "setting": "Midbrain, baseline, n = 3", "result": "3.40 ± 1.73"},
      {"measurement": "Rate Constant K1", "setting": "Midbrain, baseline, n = 3", "result": "0.436 ± 0.045", "unit": "mL·cm^−3·min^−1"},
      {"measurement": "Rate Constant k2", "setting": "Midbrain, baseline, n = 3", "result": "0.162 ± 0.117", "unit": "min⁻¹"},
      {"measurement": "Rate Constant k3", "setting": "Midbrain, baseline, n = 3", "result": "0.121 ± 0.132", "unit": "min⁻¹"},
      {"measurement": "Rate Constant k4", "setting": "Midbrain, baseline, n = 3", "result": "0.029 ± 0.022", "unit": "min⁻¹"},
      {"measurement": "VND", "setting": "Midbrain, baseline, n = 3", "result": "4.04 ± 3.06"},
      {"measurement": "BPND", "setting": "[6]", "result": "0.61 ± 0.77"},
      {"measurement": "Rate Constant K1", "setting": "[6]", "result": "0.685 ± 0.131", "unit": "mL·cm^−3·min^−1"},
      {"measurement": "Rate Constant k2", "setting": "[6]", "result": "0.063 ± 0.010", "unit": "min⁻¹"},
      {"measurement": "Rate Constant k3", "setting": "[6]", "result": "0.013 ± 0.014", "unit": "min⁻¹"},
      {"measurement": "Rate Constant k4", "setting": "[6]", "result": "0.012 ± 0.018", "unit": "min⁻¹"},
      {"measurement": "VND", "setting": "[6]", "result": "11.17 ± 3.64"},
      {"measurement": "BPND", "setting": "[7]", "result": "3.16 ± 1.11"},
      {"measurement": "Rate Constant K1", "setting": "[7]", "result": "0.395 ± 0.053", "unit": "mL·cm^−3·min^−1"},
      {"measurement": "Rate Constant k2", "setting": "[7]", "result": "0.123 ± 0.063", "unit": "min⁻¹"},
      {"measurement": "Rate Constant k3", "setting": "[7]", "result": "0.099 ± 0.087", "unit": "min⁻¹"},
      {"measurement": "Rate Constant k4", "setting": "[7]", "result": "0.030 ± 0.023", "unit": "min⁻¹"}
    ]}
  ]
}
